Experimental data from patent US4814341A, “2-guanidino-4-(2-furyl) thiazoles as antiulcer agents” (priority 1988, dated 1989).
Where a name gives a salt, the structure may show the parent alone.

What was measured:
[1] = molecular target: T1, histamine H2-receptor (Cavia porcellus, UniProt P47747); assay: Histamine-H2 antagonist activity in isolated right atria; type: cell-based, Guinea pigs; details: guinea pig right atria, histamine dose-response, Krebs-Henseleit buffer pH 7.4, 32°C; read-out: pA2 (converted)
T1 construct: the heart removed and the right atria dissected free; from tissue; host or cells: guinea pig isolated right atria
Protocol: The histamine-H2 antagonist activity of compounds of the present invention was determined by the following procedure:
Guinea pigs are killed rapidly with a blow to the head, the heart removed and the right atria dissected free. Atria are suspended, isometrically, in a temperature-controlled (32°±2° C.) tissue bath (10 ml.) containing oxygenated (95% O2; 5% CO2) Krebs-Henseleit buffer (pH 7.4) and are allowed to stabilize approximately one hour during which time the tissue bath is flushed several times. Individual atrial contractions are followed with a force-displacement transducer connected to a cardiotachometer and Grass polygraph recorder. After obtaining a dose-response curve to histamine, the bath containing each atrium is flushed several times with fresh buffer and the atria re-equilibrated to basal rates. Following the return to basal rate, test compounds are added at selected final concentrations and the histamine dose-response curve is again determined in the presence of antagonist. Results are expressed as dose-ratios, the ratio of histamine concentrations required to produce one-half of maximal stimulation in the presence and absence of antagonist, and the apparent dissociation constant of the H2 -receptor antagonist pA2, is determined.

[2] = system: conscious Heidenhain pouch dogs; assay: Gastric acid antisecretory activity, pentagastrin-stimulated acid output; type: in vivo; details: 0.1 mg/kg intravenously, overnight-fasted Heidenhain pouch dogs, lowest acid output after drug vs mean before drug
Protocol: The gastric acid antisecretory activity of compounds of the present invention was determined in overnight-fasted, conscious Heidenhain pouch dogs as follows:
Pentagastrin (Pentavlon-Ayerst) is used to stimulate acid output by continuous infusion into a superficial leg vein at doses earlier determined to stimulate near maximal acid output from the gastric pouch. Gastric juice is collected at 30 minute intervals following the start of a pentagastrin infusion and measured to the nearest 0.1 ml. Ten collections are taken for each dog during an experiment. Acid concentration is determined by titrating 1.0 ml. of gastric juice to pH 7.4 with 0.1N sodium hydroxide using an Autoburette and a glass electrode pH meter (Radiometer).
Drug or vehicle is given intravenously or orally 90 minutes following the start of the pentagastrin infusion, at a dose of 2 mg/kg or less. Gastric acid antisecretory effects are calculated by comparing the lowest acid output after drug administration with the mean acid output immediately before drug.

[3] = system: male rats; assay: Inhibition of ethanol-induced ulceration in rats; type: in vivo; details: oral dose of 30 mg/kg, fifteen minutes prior to oral absolute ethanol (1.0 ml); ulcer index vs controls
Protocol: The antiulcer activity of the products of this invention was determined by an ethanol-induced rat ulcer assay. In this test, overnight fasted male rats are given drug (at 30 or 3 mg/kg) or water orally fifteen minutes prior to an orally administered dose of absolute ethanol (1.0 ml.). One hour after the ethanol challenge the animals (8/group) are killed and the stomachs examined for the presence of lesions. After sacrifice the abdomen is opened and a locking hemostat placed at the pylorus. Six ml. of a 4% solution of formaldehyde is injected into the stomach with a gastric feeding tube and a second locking hemostat is used to seal the esophagus. The stomach is removed, opened along the greater curvature and examined for ulceration.
The scoring system used to quantitate the ethanol-induced lesions is given below.
For each group of animals an ulcer index is calculated as follows: EXAMPLE 8 (Cont.)
Ulceration Index=(the sume of the scores of the group)×(the sum of the number of ulcers in the group)×(the fraction of the group havnng any incidence of ulceration).
The percentage inhibition of ulcers is calculated as follows:
% Inhibition=100×[(ulcer index controls) - (ulcer index drug-treated)][…](ulcer index controls).

T1 sequence (P47747 whole entry): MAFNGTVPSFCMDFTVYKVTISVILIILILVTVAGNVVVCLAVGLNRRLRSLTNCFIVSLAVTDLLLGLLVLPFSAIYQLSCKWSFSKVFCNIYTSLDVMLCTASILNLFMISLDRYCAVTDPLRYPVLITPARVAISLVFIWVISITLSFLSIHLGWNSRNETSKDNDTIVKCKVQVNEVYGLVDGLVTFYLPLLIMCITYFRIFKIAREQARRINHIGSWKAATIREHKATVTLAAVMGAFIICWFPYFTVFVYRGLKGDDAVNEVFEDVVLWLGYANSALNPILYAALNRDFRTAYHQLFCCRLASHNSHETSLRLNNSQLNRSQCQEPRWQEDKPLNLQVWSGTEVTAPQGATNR

| Kb [1] | Structure (SMILES) | inhibition (gastric acid antisecretory effect) [2] | inhibition of ethanol-induced ulceration [3] |
| --- | --- | --- | --- |
| 0.02 µM | Br.Br.CN(C)Cc1ccc(-c2csc(NC(=N)N)n2)o1 [Example 2, 2-Guanidino-4-(5-[N,N-dimethylaminomethyl]-2-furyl)thiazole Dihydrobromide] | 44% | 7% |
| 0.1 µM | CCCCCCN(C)Cc1ccc(-c2csc(NC(=N)N)n2)o1 [3 (2HBr salt), 2-Guanidino-4-(5-[N-n-hexyl-N-methylaminomethyl]-2-furyl)thiazole] | 24% | 49% |
| 1 µM | CCCCCCNC(=N)Nc1nc(-c2ccc(CN(C)C)o2)cs1 [4 (2HBr salt), 2-(3-n-Hexylguanidino)-4-(5-[N,N-dimethylaminomethyl]-2-furyl)thiazole] | 38% | 93% |
